These are literature values, as cited in patent US20070112050A1, “HMGCoA reductase inhibitor combinations and uses thereof” (pSivida Inc., priority 2005, published 2007).

Each structure is given as a SMILES string. Where two headings read alike, the source gives them in different places.

Series [1] addresses T1, HMGCoA reductase (HMGR) (Homo sapiens, UniProt P04035).
T1 sequence (P04035 1-888): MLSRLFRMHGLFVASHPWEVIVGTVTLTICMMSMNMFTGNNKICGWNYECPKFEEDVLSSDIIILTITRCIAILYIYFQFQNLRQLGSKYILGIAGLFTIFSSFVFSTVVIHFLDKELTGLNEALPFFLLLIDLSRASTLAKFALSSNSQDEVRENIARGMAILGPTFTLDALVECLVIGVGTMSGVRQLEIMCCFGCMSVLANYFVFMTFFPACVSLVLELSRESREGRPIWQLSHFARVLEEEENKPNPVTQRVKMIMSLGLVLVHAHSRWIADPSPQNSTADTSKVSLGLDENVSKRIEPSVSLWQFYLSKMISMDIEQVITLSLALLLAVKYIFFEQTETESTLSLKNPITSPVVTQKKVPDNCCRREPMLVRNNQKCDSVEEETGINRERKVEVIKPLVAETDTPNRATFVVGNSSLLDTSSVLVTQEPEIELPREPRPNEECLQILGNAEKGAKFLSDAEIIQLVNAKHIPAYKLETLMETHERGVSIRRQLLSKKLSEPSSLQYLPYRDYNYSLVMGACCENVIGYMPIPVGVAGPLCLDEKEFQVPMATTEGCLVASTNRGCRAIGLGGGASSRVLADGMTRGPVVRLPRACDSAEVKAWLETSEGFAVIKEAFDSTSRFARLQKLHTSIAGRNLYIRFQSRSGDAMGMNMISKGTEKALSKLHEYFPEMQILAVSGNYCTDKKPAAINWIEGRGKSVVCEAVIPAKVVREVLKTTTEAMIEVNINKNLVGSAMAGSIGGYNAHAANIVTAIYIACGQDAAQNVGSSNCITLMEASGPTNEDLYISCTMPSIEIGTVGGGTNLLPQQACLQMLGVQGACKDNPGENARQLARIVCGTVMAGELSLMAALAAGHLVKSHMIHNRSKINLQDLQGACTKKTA
As to conditions: substrate of HMGCoA reductase; read-out: Michaelis constant, Km.

In series [2] the test system is low density lipoprotein cholesterol (LDL). Conditions: ezetimibe administered alone.

For the compound `CCOc1nc2cccc(C(=O)O)c2n1Cc1ccc(-c2ccccc2-c2nnn[nH]2)cc1` [Candesartan, candesartan], the Half-life (human, in vivo) was 10 h. Moreover, for the setting “in vivo”, the Active metabolite result is listed as “Yes”; the “Major route of inactivation” value was “Liver and renal”.

As a reminder, the Km is the concentration of substrate that gives half-maximal velocity. Take `CC(C)(COP(=O)(O)OP(=O)(O)OC[C@H]1O[C@@H](n2cnc3c(N)ncnc32)[C@H](O)[C@@H]1OP(=O)(O)O)[C@@H](O)C(=O)NCCC(=O)NCCSC(=O)C[C@@](C)(O)CC(=O)O` [HMGCoA, (S)-3-hydroxy-3-methylglutaryl-CoA]: the Km in series [1] is 4 µM. Consider `CCCCC1=NC2(CCCC2)C(=O)N1Cc1ccc(-c2ccccc2-c2nnn[nH]2)cc1` [Irbesartan, irbesartan], for which, for the setting “human body”, the Active metabolite result was “No” and the Half-life was 13 h. Consider `CCCCc1nc(Cl)c(CO)n1Cc1ccc(-c2ccccc2-c2nn[nH]n2)cc1` [Losartan, losartan], for which the Half-life (human body) was 5 h. Regarding `CCCCC(=O)N(Cc1ccc(-c2ccccc2-c2nnn[nH]2)cc1)[C@H](C(=O)O)C(C)C` [Valsartan, valsartan], for the setting “human body”, the Half-life is 6 h.

`O=C1[C@H](CC[C@H](O)c2ccc(F)cc2)[C@@H](c2ccc(O)cc2)N1c1ccc(F)cc1` [ezetimibe]: the “reduction of LDL” value in series [2] is on record as 17%.
